# Experimental data reported in US10682408B2, “Localized immunosuppression of allografts for peripheral nerve repair” (UNIVERSITY OF WYOMING, priority 2016, dated 2020).
# Tested on: DRGs, motor neurons, and Schwann cells
# Test: Alamar blue viability assay of PN cells cultured 72 hours with immunosuppressive drugs
# Conditions: 72 hours culture, max 1% DMSO
# Experimental: It is contemplated that delivery of immunosuppressive agents function within a favorable therapeutic window. PNs are comprised of three major nervous system cell types, motor neurons, sensory neurons, and Schwann cells. […] FIG. 1B illustrates data regarding the toxicity of tacrolimus to DRGs, motor neurons, and Schwann cells. FIG. 1C illustrates data regarding the toxicity of prednisolone to DRGs, motor neurons, and Schwann cells.
# Cells (DRGs, motor neurons, and Schwann cells) were cultured for 72 hours in various concentration of the immunosuppressive drugs and viability was evaluated using the Alamar blue viability assay. ISV's were diluted into media using a maximum of 1% dimethylsulfoxide (DMSO).
# Biological material from Sprague Dawley (GFP− and GFP+) and Lewis rats, without any pathological conditions, were utilized to determine the PN allograft methods and materials described herein. Lewis rats were obtained from Charles River Laboratories (Wilmington, Mass.) and Sprague Dawley rats were obtained from Rat Resource and Research Center (Columbia, Mo.). Alzet osmotic pumps (model 1004), commercially available from DURECT Corporation, Cupertino, Calif., were utilized for delivery of immunosuppressive agents to PN allografts.
smiles,measurement,value
C[C@]12C=CC(=O)C=C1CC[C@@H]1[C@@H]2[C@@H](O)C[C@@]2(C)[C@H]1CC[C@]2(O)C(=O)CO [prednisolone],dose tolerated by the cells (up to),up to 200 μM
